From PubChem BioAssay AID1963437 (Molecular Pharmacology Branch, DTP, NCI, 2024)

System: OVCAR-8 complex spheroid, growth inhibition
Assay: Anticancer human tumor OVCAR-8 cell line growth inhibition [Asc];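 also: spheroids exposed to agents for 7 days before readout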;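 as to viability, T/C: percent viability relative to DMSO vehicle wells taken as 100%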
Details: for IC50: curve of first compound; for viability, T/C: stronger effect = lower value; active = viability on the fitted dose curve at most 10% of control; inactive = the rest
Description: Multicellular complex tumor spheroid response to apoptosis pathway targeting inhibitors Alrizomadlin, Pelcitoclax, and Dasminapant in combination with a variety of drugs and investigational agents in selected tumor cell lines
The MDM2 inhibitor alrizomadlin, the Bcl-2/Bcl-xL inhibitor pelcitoclax, and the IAPs inhibitor dasminapant were evaluated both individually and in combination with standard of care and investigational anticancer small molecules within a complex spheroid model of solid tumors. . Complex spheroids include a stromal component modeled by human endothelial cells (HUVEC) and fibroblasts modeled by human mesenchymal stem cells (MSCs). The concentration ranges selected for each drug and investigational agent were based upon clinically achievable concentrations if the clinical Cmax of the agent was known.
Compounds. The drugs and investigational agents: alrizomadlin (APG-115; NSC831270), pelcitoclax (APG-1252; NSC835773), dasminapant (APG-1387;NSC834197), TAK-243 (NSC785004), copanlisib (NSC809693), olaparib (NSC753686), talazoparib (NSC767125), cobimetinib (NSC 768068), eltanexor (KPT-8602, NSC 794443), abemaciclib (NSC 768073), sotorasib (NSC818433), adagrasib (NSC 831453), MRTX-1133 (NSC 836407), Iadademestat (ORY1001, NSC 806812), and RMC-4630 (NSC839698), were obtained from the NCI Developmental Therapeutics Program Chemical Repository. The FDA-approved anticancer drug set is available from the Developmental Therapeutics Program at https://dtp.cancer.gov/organization/dscb/obtaining/available plates.htm. […] The stock solutions were prepared in dimethyl sulfoxide (DMSO, Sigma-Aldrich, St. Louis, MO, cat. D2650) at 800-fold the tested concentration and stored at -70 degrees C prior to their use. All drugs and investigational agents were tested over a range starting from a high concentration at or near the clinical Cmax and decreasing in half-log increments. If the clinical Cmax for an agent had not been determined, the highest concentration tested was 10 microM.
The patient-derived cancer (PDC) cell lines include five colon adenocarcinomas: 186277-243-T-J2-PDC, 616215-338-R-J1-PDC, 439559-082-T-J2-PDC, 463943-066-T-J2-PDC, and 519858-162-T-J1-PDC; three pancreatic carcinomas: 323965-272-R-J2-PDC, 521955-158-R6-J3-PDC, and 521955-158-R2-J5-PDC; two uterine sarcomas: 327498-152-R-J2-PDC and 993429-296-R-J1-PDC; two rhabdomyosarcomas: 755483-174-R-J1-PDC and 772245-204-R-J1-PDC; two soft tissue sarcomas: 126254-015-R-J1-PDC and 494315-158-R-J1-PDC; two malignant fibrous histiocytomas: 317291-083-R-J1-PDC and 596521-263-R-J1-PDC; two breast carcinomas: 171881-019-R-J1-PDC and 885512-296-R-J2-PDC; and one ovarian carcinoma: 6556581-035-R-J-PDC were obtained from the NCI PDMR, (https://pdmr.cancer.gov). The established cell lines HSSY-2 synovial sarcoma (RRID:CVCL 8719), SYO-1 synovial sarcoma (RRID:CVCL_7146), MPNST malignant peripheral neural sheath tumor were obtained from the Sloan Kettering Institute. The following established cell lines were purchased from the American Type Culture Collection (ATCC, Manassas, VA), Sor the received from the NCI repository:, PANC-1 pancreatic carcinoma (CRL-1469, RRID:CVCL_0480), OVCAR-5 ovarian carcinoma (RRID:CVCL_1628), OVCAR-8 ovarian carcinoma (RRID:CVCL_1629), , MCF-7 breast carcinoma (CRL-12584, RRID:CVCL_0031), MDA-MB-231 breast carcinoma (CRL-12532, RRID:CVCL_0062), NCI-H1876 small cell lung carcinoma (CRL-5902, RRID:CVCL_1503), NCI-H510A small cell lung carcinoma (HTB-184, RRID:CVCL_1565), NCI-H1417 (CRL-5869, RRID:CVCL_1469), and NCI-H196 small cell lung carcinoma (CRL-5823, RRID:CVCL_1509). Dr. Peter Houghton (Greehey Children's Cancer Research Institute, University of Texas Health Science Center, San Antonio, TX) provided Rh-18 rhabdomyosarcoma (RRID:CVCL_1659). Pooled donor human umbilical vein endothelial cells (HUVEC, Lonza, cat. CC-2519) and human mesenchymal stem cells (hMSC, Lonza, cat. PT-2501) were purchased from Lonza (Walkersville, MD).
Cell Culture. […]

COc1c(OCCCN2CCOCC2)ccc2c3n(c(=NC(=O)c4cnc(N)nc4)nc12)CCN3 + CCN1C(C(=O)NC23CCC(C(=O)O)(CC2)CC3)C(c2cccc(Cl)c2F)C2(C(=O)Nc3cc(Cl)ccc32)C12CCCCC2
inactive: viability, T/C (second compound 0.00949 µM, first compound 0.00316 µM) 94.7% | viability, T/C (second compound 0.00949 µM, first compound 0.01 µM) 92.2% | viability, T/C (second compound 0.00949 µM, first compound 0.0316 µM) 113% | viability, T/C (second compound 0.00949 µM, first compound 0.1 µM) 170% | viability, T/C (second compound 0.00949 µM, first compound 0.316 µM) 140% | viability, T/C (second compound 0.00949 µM, first compound 1 µM) 97.1% | viability, T/C (second compound 0.03 µM, first compound 0.00316 µM) 81.5% | viability, T/C (second compound 0.03 µM, first compound 0.01 µM) 101% | viability, T/C (second compound 0.03 µM, first compound 0.0316 µM) 121% | viability, T/C (second compound 0.03 µM, first compound 0.1 µM) 134% | viability, T/C (second compound 0.03 µM, first compound 0.316 µM) 133% | viability, T/C (second compound 0.03 µM, first compound 1 µM) 91.2% | viability, T/C (second compound 0.0949 µM, first compound 0.00316 µM) 104% | viability, T/C (second compound 0.0949 µM, first compound 0.01 µM) 99% | viability, T/C (second compound 0.0949 µM, first compound 0.0316 µM) 117% | viability, T/C (second compound 0.0949 µM, first compound 0.1 µM) 165% | viability, T/C (second compound 0.0949 µM, first compound 0.316 µM) 154% | viability, T/C (second compound 0.0949 µM, first compound 1 µM) 92.4% | viability, T/C (second compound 0.3 µM, first compound 0.00316 µM) 103% | viability, T/C (second compound 0.3 µM, first compound 0.01 µM) 103% | viability, T/C (second compound 0.3 µM, first compound 0.0316 µM) 108% | viability, T/C (second compound 0.3 µM, first compound 0.1 µM) 153% | viability, T/C (second compound 0.3 µM, first compound 0.316 µM) 133% | viability, T/C (second compound 0.3 µM, first compound 1 µM) 80% | viability, T/C (second compound 0.949 µM, first compound 0.00316 µM) 93.9% | viability, T/C (second compound 0.949 µM, first compound 0.01 µM) 89.8% | viability, T/C (second compound 0.949 µM, first compound 0.0316 µM) 146% | viability, T/C (second compound 0.949 µM, first compound 0.1 µM) 172% | viability, T/C (second compound 0.949 µM, first compound 0.316 µM) 144% | viability, T/C (second compound 0.949 µM, first compound 1 µM) 80.9% | viability, T/C (second compound 3 µM, first compound 0.00316 µM) 111% | viability, T/C (second compound 3 µM, first compound 0.01 µM) 115% | viability, T/C (second compound 3 µM, first compound 0.0316 µM) 133% | viability, T/C (second compound 3 µM, first compound 0.1 µM) 153% | viability, T/C (second compound 3 µM, first compound 0.316 µM) 126% | viability, T/C (second compound 3 µM, first compound 1 µM) 90.2%
> 1 µM: IC50 (second compound 0.00949 µM) | IC50 (second compound 0.03 µM) | IC50 (second compound 0.0949 µM) | IC50 (second compound 0.3 µM) | IC50 (second compound 0.949 µM) | IC50 (second compound 3 µM)

C=C(F)C(=O)N1CCN(c2nc(OCC3CCCN3C)nc3c2CCN(c2cccc4cccc(Cl)c24)C3)CC1CC#N (centres undefined) + CNC(C)C(=O)NC1CN(S(=O)(=O)c2cccc(S(=O)(=O)N3CCC4CCC(C(=O)NC(c5ccccc5)c5ccccc5)N4C(=O)C(NC(=O)C(C)NC)C3)c2)CCC2CCC(C(=O)NC(c3ccccc3)c3ccccc3)N2C1=O
0.639 µM: IC50 (second compound 1 µM)
1.72 µM: IC50 (second compound 0.01 µM)
1.63 µM: IC50 (second compound 0.00316 µM)
0.756 µM: IC50 (second compound 0.316 µM)
0.958 µM: IC50 (second compound 0.1 µM)
active: viability, T/C (second compound 0.00316 µM, first compound 3.16 µM) 4.81% | viability, T/C (second compound 0.00316 µM, first compound 10 µM) 0.78% | viability, T/C (second compound 0.01 µM, first compound 3.16 µM) 4.17% | viability, T/C (second compound 0.01 µM, first compound 10 µM) 0.22% | viability, T/C (second compound 0.0316 µM, first compound 3.16 µM) 3.55% | viability, T/C (second compound 0.0316 µM, first compound 10 µM) 0.26% | viability, T/C (second compound 0.1 µM, first compound 3.16 µM) 3.72% | viability, T/C (second compound 0.1 µM, first compound 10 µM) 0.27% | viability, T/C (second compound 0.316 µM, first compound 3.16 µM) 3.15% | viability, T/C (second compound 0.316 µM, first compound 10 µM) 0.66% | viability, T/C (second compound 1 µM, first compound 3.16 µM) 2.44% | viability, T/C (second compound 1 µM, first compound 10 µM) 0.35%
1.6 µM: IC50 (second compound 0.0316 µM)
inactive: viability, T/C (second compound 0.00316 µM, first compound 0.0316 µM) 114% | viability, T/C (second compound 0.00316 µM, first compound 0.1 µM) 103% | viability, T/C (second compound 0.00316 µM, first compound 0.316 µM) 107% | viability, T/C (second compound 0.00316 µM, first compound 1 µM) 83.1% | viability, T/C (second compound 0.01 µM, first compound 0.0316 µM) 98.7% | viability, T/C (second compound 0.01 µM, first compound 0.1 µM) 94.6% | viability, T/C (second compound 0.01 µM, first compound 0.316 µM) 96% | viability, T/C (second compound 0.01 µM, first compound 1 µM) 91.2% | viability, T/C (second compound 0.0316 µM, first compound 0.0316 µM) 97.8% | viability, T/C (second compound 0.0316 µM, first compound 0.1 µM) 94.1% | viability, T/C (second compound 0.0316 µM, first compound 0.316 µM) 96.1% | viability, T/C (second compound 0.0316 µM, first compound 1 µM) 81.9% | viability, T/C (second compound 0.1 µM, first compound 0.0316 µM) 83.1% | viability, T/C (second compound 0.1 µM, first compound 0.1 µM) 100% | viability, T/C (second compound 0.1 µM, first compound 0.316 µM) 95.7% | viability, T/C (second compound 0.1 µM, first compound 1 µM) 48.3% | viability, T/C (second compound 0.316 µM, first compound 0.0316 µM) 90% | viability, T/C (second compound 0.316 µM, first compound 0.1 µM) 89.9% | viability, T/C (second compound 0.316 µM, first compound 0.316 µM) 106% | viability, T/C (second compound 0.316 µM, first compound 1 µM) 35.4% | viability, T/C (second compound 1 µM, first compound 0.0316 µM) 78% | viability, T/C (second compound 1 µM, first compound 0.1 µM) 90.7% | viability, T/C (second compound 1 µM, first compound 0.316 µM) 97.1% | viability, T/C (second compound 1 µM, first compound 1 µM) 25.4%
